Measured values from patent US10709704B2, “Treating neural disease with tyrosine kinase inhibitors” (GEORGETOWN UNIVERSITY, priority 2012, dated 2020).

Assays:
[1] = tested on: autophagic vacuoles and lysosomes; assay: Subcellular fractionation (AV-10, AV-20, lysosome) and ELISA, Tg-APP mice; type: in vivo, mouse
Procedure: Histograms show Aβ1-42 in subcellular fractions, including autophagic vacuole-10 (AV-10; phagophores+autophagosomes), AV-20 (autophagosomes) and lysosomes. […] Brain tissues were fractionated to isolate AVs and human specific ELISA was performed to determine protein contents. N=5 animals per treatment.
(§1) 0.5 g of Frozen human or animal brains were homogenized at low speed (Cole-Palmer homogenizer, LabGen 7, 115 Vac) in 1×STEN buffer and centrifuged at 1,000 g for 10 minutes to isolate the supernatant from the pellet. The pellet was re-suspended in 1×STEN buffer and centrifuged once to increase the recovery of lysosomes. The pooled supernatants were then centrifuged at 100,000 rpm for 1 hour at 4° C. to extract the pellet containing autophagic vacuoles (AVs) and lysosomes. The pellet was then re-suspended in 10 ml (0.33 g/ml) 50% Metrizamide and 10 ml in cellulose nitrate tubes. A discontinuous Metrizamide gradient was constructed in layers from bottom to top as follows: 6 ml of pellet suspension, 10 ml of 26%; 5 ml of 24%; 5 ml of 20%; and 5 ml of 10% Metrizamide (Marzella et al., 1982). After centrifugation at 10,000 rpm for 1 hour at 4° C., the fraction floating on the 10% layer (Lysosome) and the fractions banding at the 24%/20% (AV 20) and the 20%/10% (AV10) Metrizamide inter-phases were collected by a syringe and examined.
as §1, with “Animal” for “0.5 g of Frozen human or animal”, “100.000” for “100,000”, “[…]” for “4°”, “Metrizamide.” for “Metrizamide (Marzella et al., 1982).”, “100,000” for “10,000”, “40 C,” for “4° C.,”

Tg-APP mice = assay: Novel object recognition, Tg-APP mice; type: in vivo, mouse; settings: Tg-APP+Nilotinib
Procedure: (§2) Mice were placed individually in a 22×32×30 cm testing chamber for a 5 min habituation interval and returned to their home cages. Thirty minutes later mice were placed in the testing chamber for 10 min with two identical objects (acquisition session), then returned to their home cages and […] placed back in the testing chamber in the presence with one of the original objects and one novel object of the same size but of a different color and shape (recognition session). Sessions were video recorded. Time spent exploring the objects were scored by blind observer. The recognition index was calculated as (time exploring one of the objects/time exploring both objects)×100 for acquisition session, and (time exploring new object/time exploring both familiar and novel objects)×100 for the recognition session. Statistical calculations to estimate differences between sessions were performed with a pairwise t-test.
(§3) These experiments were repeated in 1 year old Tg-APP mice and age-matched control (C57BL/6).

Aβ1-42 parkin−/− mice = assay: Novel object recognition, Aβ1-42 parkin−/− mice; type: in vivo, mouse; settings: Aβ1-42 parkin−/− mice with or without Nilotinib
Procedure: as §2, §3

[2] = tested on: lentiviral Aβ1-42-injected parkin−/− mice; assay: Morris water maze, lentiviral Aβ1-42 parkin−/− mice; type: in vivo, mouse
Procedure: (§4) All animals were pre-trained (trials) to swim for 90 seconds in a water maze containing a platform submerged in water (invisible) for 4 consecutive days once a day. The pretraining trials “teach” the swimming animals that to “escape”, they must find the hidden platform, and stay on it. The water maze “test” was performed on day 5, (40), when the platform was removed and mice have to swim and find it, thus assessing acquisition and retention. All parameters, including distance travelled to reach platform, speed to get to the platform, latency or time spent on platform, and platform entry were digitally recorded on a computer and analyzed by a blind investigator.
(§5) The Morris water maze test was performed after 4 days of training trials in which the platform was placed in the SE corner and mice were initially placed in the NW corner of the pool.

[3] = tested on: lentiviral Aβ1-42-injected wild type mice; assay: Morris water maze, lentiviral Aβ1-42 wild type mice; type: in vivo, mouse; settings: Nilotinib
Procedure: as §4, §5

[4] = tested on: parkin and molecular markers of autophagy; assay: Parkin and autophagy markers (WB, ELISA), lentiviral Aβ1-42 wild type mice; type: in vivo, mouse
[5] = tested on: human Tau, Aβ1-42, α-synuclein; assay: M17 cells transfected with Tau cDNA: Tau, Aβ1-42, α-synuclein; type: cell-based
Procedure: Cell culture experiments are referenced below and explained in Burns et al. (Human Molecular Genetics. 2009) and Rebeck et al. (J. Biol. Chem. 2010, 285:7440-7446). Additional details are provided in the brief description of the figures.
In other experiments, M17 cells transfected with Tau cDNA were treated with Nilobinib and Tubacin (an HDAC6 inhibitor).

caspase-3 activation = tested on: caspase-3 activation
Procedure: Lentiviral constructs encoding LacZ, or Aβ1-42 were stereotaxically injected 1×106 multiplicity of infection (m.o.i) bilaterally into the CA1 hippocampus of 1 year old C57BL/6 or parkin−/−. A Total of […] lentiviral stocks were delivered at a rate of 0.2 μl/min and. All procedures were approved by the Georgetown University Animal Care and Use Committee (GUACUC).
Aβ and p-Tau enzyme-linked immunosorbent assay (ELISA) using specific p-Tau, Aβ1-40 and Aβ1-42 ELISA and caspase-3 activity were performed according to manufacturer's protocol.

[6] = IP 10 mg/kg Nilotinib or 5 mg/Kg Bosutinib daily 3 weeks
[7] = wild type lentiviral Aβ1-42 mice, Nilotinib vs DMSO

Question: Which results are given for `Cc1cn(-c2cc(NC(=O)c3ccc(C)c(Nc4nccc(-c5cccnc5)n4)c3)cc(C(F)(F)F)c2)cn1` [Nilotinib]?
Answer: autophagic clearance of Aβ1-40 (deposition in AV-20 and lysosome) [1, 6]: enhances autophagic clearance; autophagic clearance of Aβ1-42 (deposition in AV-20 and lysosome) [1, 6]: enhances autophagic clearance; autophagic clearance of p-Tau ser 396 (deposition in AV-20 and lysosome) [1, 6]: enhances autophagic clearance; autophagic clearance of parkin (deposition in AV-20 and lysosome) ([1]; IP 10 mg/kg Nilotinib or 5 mg/kg Bosutinib daily 3 weeks): enhances autophagic clearance; better performance at finding new objects than DMSO mice (Tg-APP mice): 31%; novel object recognition learning (Aβ1-42 parkin−/− mice): did not learn; decrease in distance travelled compared to control and wild type ([2]; Aβ1-42 parkin−/− mice with Nilotinib (first of '±Nilotinib ... respectively')): 80%; time in NW quadrant ([2]; Aβ1-42 parkin−/− mice with and without Nilotinib): remained significantly more in the NW quadrant; time spent in NW quadrant ([3]; Aβ1-42-injected wild type mice): back to the level observed in control mice; improved time spent in SE compared to DMSO ([3]; Aβ1-42 wild type mice): 61%; improved time spent in SE compared to control ([3]; Aβ1-42 wild type mice): 26%; number of entries into SE (platform entry) ([3]; Aβ1-42 wild type mice): reversed the number of entries back to control; LC3-II [4, 7]: disappearance; decrease in LC3-B [4, 7]: 38%; parkin level (ELISA) ([4]; wild type mice and lentiviral Aβ1-42 ± Nilotinib): increases parkin level; human Aβ1-42 [5]: decrease; human Tau [5]: decrease; α-synuclein [5]: decrease; increase in caspase-3 activation (caspase-3 activation; lentiviral Aβ1-42 parkin−/− mice with Nilotinib (without 180%)): 165%; caspase-3 activation above control (caspase-3 activation; lentiviral Aβ1-42 wild type mice, 10 mg/kg daily 3 weeks (DMSO 165%)): 45 % above control
